Measured values: patent publication US5773459A, “Urea- and thiourea-type compounds” (Sugen, Inc., priority 1995, dated 1998)
Like-named read-outs stand apart in the source and are kept apart here.

Tests used:
HER2 = biological target: T1, HER2 (Homo sapiens, UniProt P04626); assay: HER2-ELISA, HER2-BT474 assay measuring whole cell HER2 activity; format: cell-based
T1 construct: a human breast tumor cell line which expresses high levels of HER2 kinase; host or cells: BT-474 human breast tumor cells
T1 sequence (P04626 23-1255): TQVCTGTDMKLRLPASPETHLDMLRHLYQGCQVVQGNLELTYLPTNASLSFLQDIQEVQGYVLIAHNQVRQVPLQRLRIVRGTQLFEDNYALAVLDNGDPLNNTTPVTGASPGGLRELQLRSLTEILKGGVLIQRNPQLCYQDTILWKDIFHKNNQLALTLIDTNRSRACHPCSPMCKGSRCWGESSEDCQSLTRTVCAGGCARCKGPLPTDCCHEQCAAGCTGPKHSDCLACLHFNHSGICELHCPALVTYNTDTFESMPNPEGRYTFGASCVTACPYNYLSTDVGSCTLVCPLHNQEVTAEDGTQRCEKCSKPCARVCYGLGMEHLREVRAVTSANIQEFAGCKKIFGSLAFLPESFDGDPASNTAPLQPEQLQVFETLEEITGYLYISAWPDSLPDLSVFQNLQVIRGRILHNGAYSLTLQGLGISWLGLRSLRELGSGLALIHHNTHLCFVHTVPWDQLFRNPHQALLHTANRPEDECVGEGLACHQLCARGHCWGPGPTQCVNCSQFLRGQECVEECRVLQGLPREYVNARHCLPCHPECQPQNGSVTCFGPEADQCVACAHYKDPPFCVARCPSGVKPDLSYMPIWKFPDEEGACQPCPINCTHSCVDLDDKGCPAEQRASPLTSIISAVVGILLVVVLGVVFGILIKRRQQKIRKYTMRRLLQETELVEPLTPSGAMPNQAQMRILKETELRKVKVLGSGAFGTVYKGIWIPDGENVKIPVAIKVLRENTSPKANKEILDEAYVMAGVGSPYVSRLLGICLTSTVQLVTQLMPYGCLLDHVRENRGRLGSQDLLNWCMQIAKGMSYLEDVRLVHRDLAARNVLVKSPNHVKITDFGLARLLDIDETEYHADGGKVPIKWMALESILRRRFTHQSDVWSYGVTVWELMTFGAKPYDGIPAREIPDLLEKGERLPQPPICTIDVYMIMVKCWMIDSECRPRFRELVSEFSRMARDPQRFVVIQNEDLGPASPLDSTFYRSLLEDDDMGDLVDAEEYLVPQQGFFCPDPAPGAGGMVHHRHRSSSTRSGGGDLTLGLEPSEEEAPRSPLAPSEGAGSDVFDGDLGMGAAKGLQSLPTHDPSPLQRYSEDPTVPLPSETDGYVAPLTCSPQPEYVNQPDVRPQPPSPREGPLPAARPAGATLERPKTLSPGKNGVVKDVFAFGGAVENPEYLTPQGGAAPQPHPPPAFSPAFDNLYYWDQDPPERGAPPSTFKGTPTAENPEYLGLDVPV
Experimental: Growth assays were carried out using human mammary epithelial SKBR3 (ATCC HTB30) cells (SKBR3 cells over-express HER2), SKOV3 (ATCC HTB77) human ovarian cancer cell line (SKOV3 cells also over-express HER2), A431 cells (A431 cells over-express EGFR) MCF7 human breast carcinoma cells, MCF7 cells overexpressing the HER2 kinase (MCF7-HER2), NIH3T3 cells, and NIH3T3 cells overexpressing the HER2 kinase (3T3-HER2.
HER2-BT474 assays measuring whole cell HER2 activity was carried out as described below:
2. […] The growth media is RPMI+10% FBS+GMS-G (Gibco supplement)+Glutamine.
3. A monoclonal anti-HER2 antibody is used in ELISA.
Incubate the cells in 5% CO2 at 37° C. overnight.
2. ELISA Plate Coating and Blocking
The antibody coated plates can be used up to 2 weeks, when stored at 4° C.
(b) On the day of use, remove the coating solution, replace with 200 μl of Blocking Buffer, shake the plate, and then remove the blocking buffer and wash the plate just before adding lysate.
(a) […] the drugs in serum-free condition. Before adding drugs, the old media
(b) Dilute drug stock (in 100% DMSO) 1:10 with RPMI, and transfer 10 μl/well of this solution to the cells to achieve a final drug DMSO concentration at 1%. Incubate the cells in 5% CO2 at 37° C.
(c) Prepare fresh cell lysis buffer (HNTG*)
(d) After drug preincubation for two hours remove all the solution from the plate, transfer HNTG* 100 μl/well to the cells, and shake for 10 minutes.
(e) Use a 12-channel pipette to scrape the cells from the plate, and homogenize the lysate by repeat aspiration and dispensing. Transfer all the lysate to the ELISA plate and shake for 1 hour.
(f) Remove the lysate, wash the plate, add anti-pTyr (1:3,000 with TBST) 100 μl/well, and shake for 30 minutes.
(g) Remove anti-pTyr, wash the plate, add goat anti-rabbit IgG conjugated antibody (1:5,000 with TBST) 100 μl/well, and shake for 30 minutes.
(h) Remove anti-rabbit IgG antibody, wash the plate, and add fresh ABTS/H2 O2 (1.2 μl 30% H2 O2 in 10 ml ABTS) 100 μl/well to the plate to start color development, which usually takes 20 minutes.

[1] = tested on: MCF7 human breast carcinoma cells; assay: MCF-7 SRB Growth Assay; format: cell-based; conditions: read-out: GROWTH DATA: MCF7 10% FBS
From the text: The following examples illustrate the ability of the exemplary compounds to inhibit receptor tyrosine kinases, such as HER2 and/or EGFR. The following target cells were used for cellular kinase assays: NIH3T3 clone C7 (Honegger et al., supra) engineered to over-express human EGF receptor; NIH3T3 cells engineered to over-express a chimeric receptor containing the EGFR extracellular domain and the HER2 intracellular kinase domain; the human mammary carcinoma line BT474 (ATCC HTB2) expressing HER2; and the human glioblastoma line U1242 that expresses PDGFR-beta. Growth assays were carried out using human mammary epithelial SKBR3 (ATCC HTB30) cells (SKBR3 cells over-express HER2), SKOV3 (ATCC HTB77) human ovarian cancer cell line (SKOV3 cells also over-express HER2), A431 cells (A431 cells over-express EGFR) MCF7 human breast carcinoma cells, MCF7 cells overexpressing the HER2 kinase (MCF7-HER2), NIH3T3 cells, and NIH3T3 cells overexpressing the HER2 kinase (3T3-HER2.
MCF-7 cells are seeded at 2000 cells/ well in a 96-well flat bottom plate in normal growth media, which was 10% FBS/RPMI supplemented with 2 mM Glutamine. The plate of cells is incubated for about 24 hours at 37° C. after which it receives an equal volume of compound dilution per well making the total volume per well 200 μl. The compound is prepared at 2 times the desired highest final concentration and serially diluted in the normal growth media in a 96-well round bottom plate and then transferred to plate of cells. DMSO serves as the vector control up to 0.2% as final concentration. The cells are then incubated at 37° C. in a humidified 5% CO2 incubator.
Four days following dosing of compound, the media is 15 discarded and 200 μl/well of ice-cold 10% TCA (Trichloroacetic Acid) is added to fix cells. After 60 minutes at 4° C., the TCA is discarded and the plate is rinsed 5 times with water. The plate is then air-dried and 100 μl/well of 0.4% SRB (Sulforhodamine B from Sigma) 20 in 1% Acetic Acid is added to stain cells for 10 minutes at room temperature. The SRB is discarded and the plate is rinsed 5 times with 1% Acetic Acid. After the plate is completely dried, 100 μl/well of 10 mM Tris-base is added to solubilize the dye. After 5 to 10 minutes, the plate is read on a Dynatech ELISA Plate Reader at dual wavelengths at 570 nm and 630 nm.

[2] = BT474 cells, read-out: ELISA DATA: HER2 - (BT474)

| IC50 (HER2; [2]) | IC50 [1] | SMILES | IC50 (HER2) |
| --- | --- | --- | --- |
| 11.8 µM | 5 µM | CC(C)S(=O)(=O)c1csc(NC(=O)Nc2ccc(C(C)(C)C)cc2)c1Cl [Example Z1, N-[3-Chloro-4-(isopropylsulfonyl)thien-2-yl]-N'-(4-t-butylphenyl)urea] | – |
| 3.2 µM | 1 µM | CC(C)S(=O)(=O)c1csc(NC(=O)Nc2cc(C(F)(F)F)cc(C(F)(F)F)c2)c1Cl [Example Z2, N-[3-Chloro-4-(isopropylsulfonyl)thien-2-yl]-N'-(3,5-di-trifluoromethylphenyl)urea] | – |
| 9.3 µM | 3 µM | N#Cc1ccc(NC(=S)Nc2ccc(S(=O)(=O)N3CCCCC3)cc2)cc1 [Example Z4, N-(4-Cyanophenyl)-N'-[4-[(piperid-1-yl)sulfonyl]phenyl]thiourea] | – |

| SMILES | IC50 (HER2; [2]) | IC50 [1] | IC50 (HER2) |
| --- | --- | --- | --- |
| O=C(Nc1ccc(SC(F)(F)F)cc1)Nc1ccc(Oc2ccc(Cl)cc2Cl)nc1 [Example Z3] | – | 2 µM | 9.9 µM |
